From patent US20260209214A1, “LSD1 MODULATORS” (RECURSION PHARMACEUTICALS, INC., priority 2022, published 2026) come the findings set out here.

The assay concerns the target Recombinant human LSD1 (Homo sapiens, UniProt O60341). The assay is described as follows: LSD1 inhibition assay (HTRF LSD1 Histone H3K4 mono-demethylation assay, me1->me0). In kind it is biochemical. The conditions noted are these: 20 nM recombinant human LSD1, 95 nM H3K4(me1) biotinylated peptide, 15 min preincubation, 60 min at 25° C., read-out: LSD1 inhibition IC50 (nM range). Summed up:
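HTRF demethylation (me1->me0) read-out: streptavidin-XL665 and anti-H3K4me0 cryptate added after reaction, ratio measured after 90 min dark. Reaction: 95 nM H3K4me1 biotin-peptide, 20 nM LSD1 (15-min compound pre-incubation), 60 min, 25 °C, buffer pH 8.5 plus FAD and DTT; 4-parameter logistic IC50.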
For orientation: In TR-FRET formats the signal depends on donor and acceptor labels being close together.
By IC50 is commonly meant the concentration at which inhibition is half-maximal. In the case of `N#Cc1ccc(-c2cccc(CN3C[C@]4(N)CC[C@H]3C4)c2C2CC2)cc1` [Example 184, 3'-{[(1S,4S)-4-amino-2-azabicyclo[2.2.1]heptan-2-yl]methyl}-2'-cyclopropyl-[1,1'-biphenyl]-4-carbonitrile], the IC50 lay within 25 to 100 nM. The figure for `N#Cc1ccc(-c2cc(CC3CNCCO3)ccc2N2CCC(O)(C(F)(F)F)CC2)cc1F` (centres unmarked) [Example 151, 3-fluoro-2′-[4-hydroxy-4-(trifluoromethyl)piperidin-1-yl]-5′-[(morpholin-2-yl)methyl]-[1,1′-biphenyl]-4-] is 100 to 1000 nM.

With `Cc1ncc(-c2c(CC3CNCCO3)cccc2-c2ccc(C#N)c(F)c2)o1` (centres unmarked) [Example 69, 3-fluoro-2′-(2-methyl-1,3-oxazol-5-yl)-3′-[(morpholin-2-yl)methyl]-[1,1′-biphenyl]-4-carbonitrile], the IC50 was in the range of 100 to 1000 nM. As for `C[C@]1(N)CCN(Cc2cccc(-c3ccc(C#N)c(F)c3)c2C2CC2)C1` [Example 202, 3'-{[(3S)-3-amino-3-methylpyrrolidin-1-yl]methyl}-2'-cyclopropyl-3-fluoro-[1,1'-biphenyl]-4-carbonitrile], the figure is 25 to 100 nM; as for `N#Cc1ccc(-c2cc(CN3[C@@H]4CC[C@H]3[C@@H](N)C4)ccc2OC2CCC2)cc1F` (racemic) [Example 312, 5'-{[(1S,2S,4R)-2-amino-7-azabicyclo[2.2.1]heptan-7-yl]methyl}-2'-cyclobutoxy-3-fluoro-[1,1'-biphenyl]-4-carbonitrile], 10 to 25 nM.

`N#Cc1ccc(-c2cc(F)cc(CN3[C@H]4CC[C@@H]3[C@H](N)C4)c2C2CC2)cc1F` (single isomer, unassigned) [Example 223]: the IC50 fell in the range of 10 to 25 nM. As for `N#Cc1ccc(-c2cc(CN3[C@@H]4CC[C@H]3[C@@H](N)C4)ccc2COC(F)F)cc1F` (racemic) [Example 313, 5'-{[(1S,2S,4R)-2-amino-7-azabicyclo[2.2.1]heptan-7-yl]methyl}-2'-[(difluoromethoxy)methyl]-3-fluoro-[1,1'-biphenyl]-4-carbonitrile], the figure is 10 to 25 nM; as for `N#Cc1ccc(-c2cc(CC3CNCCO3)ccc2N[C@H]2CCCOC2)cc1F` (stereo partly drawn) [Example 123, 3-fluoro-5′-[(morpholin-2-yl)methyl]-2′-{[(3S)-oxan-3-yl]amino}-[1,1′-biphenyl]-4-carbonitrile], over 1000 nM. The figure for `N#Cc1ccc(-c2cccc(CC3CNCCO3)c2-c2ccns2)cc1` (centres unmarked) [Example 1, 3′-[(morpholin-2-yl)methyl]-2′-(1,2-thiazol-5-yl)-[1,1′-biphenyl]-4-carbonitrile] is 10 to 25 nM.

For the compound `C[C@]1(N)CCN(Cc2cccc(-c3ccc(C#N)c(F)c3)c2-c2ccns2)C1` [Example 302, 3'-{[(3S)-3-amino-3-methylpyrrolidin-1-yl]methyl}-3-fluoro-2'-(1,2-thiazol-5-yl)-[1,1'-biphenyl]-4-carbonitrile], the half-maximal inhibitory concentration (IC50) was under 10 nM. As for `N#Cc1ccc(-c2cccc(CC3CCCNC3)c2-c2ccns2)cc1F` (centres unmarked) [Example 71, 3-fluoro-3′-[(piperidin-3-yl)methyl]-2′-(1,2-thiazol-5-yl)-[1,1′-biphenyl]-4-carbonitrile], the IC50 is under 10 nM. As for `CCN1CCN(c2ccc(CC3CNCCO3)cc2-c2ccc(C#N)c(F)c2)CC1` (centres unmarked) [Example 164, 2′-(4-ethylpiperazin-1-yl)-3-fluoro-5′-[(morpholin-2-yl)methyl]-[1,1′-biphenyl]-4-carbonitrile], the figure is 100 to 1000 nM.

As to `N#Cc1ccc(-c2ccc(F)c(CN3[C@H]4CC[C@@H]3[C@H](N)C4)c2OC(F)F)cc1F` (single isomer, unassigned) [Example 169], the IC50 was 10 to 25 nM. As for `CN1CCC12CCN(Cc1c(F)ccc(-c3ccc(C#N)c(F)c3)c1Cl)C2` (centres unmarked) [Example 289, 2'-chloro-3,4'-difluoro-3'-({1-methyl-1,6-diazaspiro[3.4]octan-6-yl}methyl)-[1,1'-biphenyl]-4-carbonitrile], the figure is 100 to 1000 nM. Consider `N#Cc1ccc(-c2cc(CC3CNCCO3)ccc2N2CC3(CCOC3)C2)cc1F` (centres unmarked) [Example 127], for which the IC50 lay in the range of 100 to 1000 nM. For `N#Cc1ccc(-c2cc(C[C@@H]3CNCCO3)ccc2N2CCC2)cc1F` (single isomer, unassigned) [Example 41], the IC50 was 100 to 1000 nM. As for `N#Cc1ccc(-c2cc(CN3[C@@H]4CC[C@H]3[C@@H](N)C4)ccc2N2CCC3(CCCO3)CC2)cc1F` (racemic) [Example 224, 5'-{[(1S,2S,4R)-2-amino-7-azabicyclo[2.2.1]heptan-7-yl]methyl}-3-fluoro-2'-{1-oxa-8-azaspiro [4.5]decan-8-yl}-[1,1'-biphenyl]-4-carbonitrile], the IC50 was 10 to 25 nM. `COc1ccc(-c2c(C)cc(CC3CNCCO3)cc2-c2ccc(C#N)c(F)c2)cn1` (centres unmarked) [Example 85, 3-fluoro-2′-(6-methoxypyridin-3-yl)-3′-methyl-5′-[(morpholin-2-yl)methyl]-[1,1′-biphenyl]-4-carbonitrile]: the half-inhibitory concentration (IC50) is 100 to 1000 nM. As for `N#Cc1ccc(-c2cc(CC3CNCCO3)ccc2N2CCC3(CCCO3)CC2)cc1F` (centres unmarked) [Example 78, 3-fluoro-5′-[(morpholin-2-yl)methyl]-2′-{1-oxa-8-azaspiro[4.5]decan-8-yl}-[1,1′-biphenyl]-4-carbonitrile], the IC50 fell in the range of 100 to 1000 nM. Turning to `N#Cc1ccc(-c2cccc(CN3[C@@H]4CC[C@H]3[C@@H](N)C4)c2OCC2CC2)cc1F` (racemic) [Example 245, 3'-{[(1S,2S,4R)-2-amino-7-azabicyclo[2.2.1]heptan-7-yl]methyl}-2'-(cyclopropylmethoxy)-3-fluoro-[1,1'-biphenyl]-4-carbonitrile], the concentration for half-maximal inhibition (IC50) lay within 25 to 100 nM. The figure for `CC(C)C1(O)CCN(c2ccc(CC3CNCCO3)cc2-c2ccc(C#N)c(F)c2)C1` (centres unmarked) [Example 66, 3-fluoro-2′-[3-hydroxy-3-(propan-2-yl)pyrrolidin-1-yl]-5′-[(morpholin-2-yl)methyl]-[1,1′-biphenyl]-4-carbonitrile] is 100 to 1000 nM. As for `N#Cc1ccc(-c2cccc(C[C@H]3CNCCO3)c2C2=CCOC2)cc1F` (single isomer, unassigned) [Example 22], the figure is 10 to 25 nM; as for `CC1(N)CCN(Cc2cccc(-c3ccc(C#N)c(F)c3)c2C2CC2)CC1` [Example 205, 3'-[(4-amino-4-methylpiperidin-1-yl)methyl]-2'-cyclopropyl-3-fluoro-[1,1'-biphenyl]-4-carbonitrile], 25 to 100 nM. Take `N#Cc1ccc(-c2cc(CC3CNCCO3)ccc2N2CCOCC2)cc1F` (centres unmarked) [Example 167, 3-fluoro-5′-[(morpholin-2-yl)methyl]-2′-(morpholin-4-yl)-[1,1′-biphenyl]-4-carbonitrile]: the IC50 is over 1000 nM. The figure for `N#Cc1ccc(-c2ccc(F)c(CN3[C@@H]4CC[C@H]3[C@@H](N)C4)c2-c2ccns2)cc1F` (racemic) [Example 207, 3'-{[(1S,2S,4R)-2-amino-7-azabicyclo[2.2.1]heptan-7-yl]methyl}-3,4'-difluoro-2'-(1,2-thiazol-5-yl)-[1,1'-biphenyl]-4-carbonitrile] is under 10 nM; for `N#Cc1ccc(-c2cc(C3CC3)cc(CC3CNCCO3)c2-c2cncs2)cc1F` (centres unmarked) [Example 57, 5′-cyclopropyl-3-fluoro-3′-[(morpholin-2-yl)methyl]-2′-(1,3-thiazol-5-yl)-[1,1′-biphenyl]-4-carbonitrile] it is 10 to 25 nM. As for `C[C@]1(N)C[C@H]2CC[C@@H]1N2Cc1cccc(-c2ccc(C#N)c(F)c2)c1C1CC1` (racemic) [Example 229, 3'-{[(1S,2S,4R)-2-amino-2-methyl-7-azabicyclo[2.2.1]heptan-7-yl]methyl}-2'-cyclopropyl-3-fluoro-[1,1'-biphenyl]-4-carbonitrile], the figure is 25 to 100 nM; as for `N#Cc1ccc(-c2cccc(Cn3ncc4c3CNCC4)c2-c2cncs2)cc1F` [Example 280, 3-fluoro-3'-({1H,4H,5H,6H,7H-pyrazolo[3,4-c]pyridin-1-yl}methyl)-2'-(1,3-thiazol-5-yl)-[1,1'-biphenyl]-4-carbonitrile], 100 to 1000 nM; as for `N#Cc1ccc(-c2ccc(F)c(CN3C[C@@H]4[C@H](N)[C@@H]4C3)c2Cl)cc1F` [Example 291, 3'-{[(1R,5S,6S)-6-amino-3-azabicyclo[3.1.0]hexan-3-yl]methyl}-2'-chloro-3,4'-difluoro-[1,1'-biphenyl]-4-carbonitrile], 100 to 1000 nM.

Take `N#Cc1ccc(-c2cccc(C[C@H]3CNCCO3)c2-c2ccno2)cc1` (single isomer, unassigned) [Example 9]: the IC50 was in the range of 10 to 25 nM. The figure for `N#Cc1ccc(-c2ccc(F)c(CN3[C@@H]4CC[C@H]3[C@@H](N)C4)c2C2CC2)cc1F` (racemic) [Example 181, N[C@@H]1C[C@@H]2CC[C@H]1N2Cc3c(F)ccc(c4ccc(C#N)c(F)c4)c3C5CC5] is 10 to 25 nM; for `N#Cc1ccc(-c2cccc(CN3C[C@]4(N)CC[C@H]3C4)c2C2CC2)cc1F` [Example 193, 3'-{[(1S,4S)-4-amino-2-azabicyclo[2.2.1]heptan-2-yl]methyl}-2'-cyclopropyl-3-fluoro-[1,1'-biphenyl]-4-carbonitrile] it is 10 to 25 nM; for `N#Cc1ccc(-c2cccc(CN3CC4CC(C3)N4)c2C2CC2)cc1F` [Example 323, 4-[2-cyclopropyl-3-(3,6-diazabicyclo[3.1.1]heptan-3-ylmethyl)phenyl]-2-fluoro-benzonitrile; (2R,3R)-2,3-dihydroxybutanedioic acid] it is 10 to 25 nM. The figure for `CN[C@H]1CCCCN(Cc2cccc(-c3ccc(C#N)c(F)c3)c2C2CC2)C1` [Example 272, 2'-cyclopropyl-3-fluoro-3'-{[(3S)-(methylamino)azepan-1-yl]methyl}-[1,1'-biphenyl]-4-carbonitrile] is 100 to 1000 nM; for `N#Cc1ccc(-c2cccc(CN3[C@H]4CC[C@@H]3[C@H](N)C4)c2CC2CC2)cc1F` (single isomer, unassigned) [Example 221] it is 25 to 100 nM.
